Test [1] concerns E. faecalis EFS1. As for the experimental part: (§1) In the present case, the antimicrobial activities of MBI-11B7CN, MBI-11B7HSL (homoserine lactone form) and MBI-11B7HS (homoserine form) were tested against various gram-negative and gram-positive strains, including antibiotic resistant strains. The assay was performed as described in “Methods for Dilution Antimicrobial Susceptibility Tests for Bacteria That Grow Aerobically-Fourth Edition; Approved Standard” NCCLS document M7-A4 (ISBN 1-56238-309-4) Vol. 17, No. 2 (1977).
(§2) The antimicrobial activities of the chemically synthesized MBI-11B7CN peptide and recombinant DNA synthesized MBI-11B7HSL (homoserine lactone form) and MBI-11B7HS (homoserine form) peptides were tested against various gram-negative and positive strains of bacteria, including antibiotic resistant strains. The Agarose Dilution Assay was performed as described in “Methods for Dilution Antimicrobial Susceptibility Tests for Bacteria That Grow Aerobically-Fourth Edition; Approved Standard” NCCLS document M7-A4 (ISBN 1-56238-309-4) Vol. 17, No 2 (1977).
(§3) The agarose dilution assay measures antimicrobial activity of peptides and peptide analogues, which is expressed as the minimum inhibitory concentration (MIC) of the peptides.
(§4) In order to mimic in vivo conditions, calcium and magnesium supplemented Mueller Hinton broth is used in combination with a low EEO agarose as the bacterial growth medium. Agarose, rather than agar, is used as the charged groups in agar prevent peptide diffusion through the media. The medium is autoclaved and then cooled to 50° C.-55° C. in a water bath before aseptic addition of anti-microbial solutions. The same volume of different concentrations of peptide solution are added to the cooled molten agarose, which is then poured to a depth of 3-4 mm.
(§5) The bacterial inoculum is adjusted to a 0.5 McFarland turbidity standard (PML Microbiological) and then diluted 1:10 before application on to the agarose plate. The final inoculum applied to the agarose is approximately 10^4 CFU in a 5-8 mm diameter spot. The agarose plates are incubated at 35° C.-37° C. for 16 to 20 hours.

Test [2] deals with E. faecalis EFS8. As for the experimental part:
as §1, §2, §3, §4, §5

The test system of test [3] is E. cloacae ECL7. As for the experimental part:
as §1, §2, §3, §4, §5

Test [4] has as its system P. aeruginosa PA4. As for the experimental part:
as §1, §2, §3, §4, §5

Test [5] deals with S. aureus SA93. As for the experimental part:
as §1, §2, §3, §4, §5

In test [6] the test system is S. aureus SA14. As to the method: as §1, §2, §3, §4, §5
Test [7] has as its system S. marcescens SMS3. As to the method: as §1, §2, §3, §4, §5
Test [8] deals with A. calcoaceticus AC2. As for the experimental part:
as §1, §2, §3, §4, §5

Test [9] has as its system E. coli ECO5. As to the method: as §1, §2, §3, §4, §5
Test [10] concerns S. epidermidis SE10. As for the experimental part: as §1, §2, §3, §4, §5
Test [11] has as its system S. maltophilia SMA2. As for the experimental part: as §1, §2, §3, §4, §5
Test [12] concerns K. pneumoniae KP1. As for the experimental part:
as §1, §2, §3, §4, §5

[13] abbreviates: E. faecalis, organism # EFS1, source ATCC, agarose dilution.
The mark [14] stands for this setting: E. faecalis, organism # EFS8, source ATCC, agarose dilution.
Where [15] appears, read: E. cloacae, organism # ECL7, source ATCC, agarose dilution.
The mark [16] stands for this setting: P. aeruginosa, organism # PA4, source ATCC, agarose dilution.
The mark [17] stands for this setting: S. aureus, organism # SA93, source Bayer, agarose dilution.
Where [18] appears, read: S. aureus, organism # SA14, source Bayer, agarose dilution.
The mark [19] stands for this setting: S. marcescens, organism # SMS3, source ATCC, agarose dilution.
Setting [20] is: A. calcoaceticus, organism # AC2, source ATCC, agarose dilution.
[21] abbreviates: E. coli, organism # ECO5, source ATCC, agarose dilution.
[22] abbreviates: S. epidermidis, organism # SE10, source Chow, agarose dilution.
The mark [23] stands for this setting: S. maltophilia, organism # SMA2, source ATCC, agarose dilution.
The mark [24] stands for this setting: K. pneumoniae, organism # KP1, source ATCC, agarose dilution.

Where two headings read alike, the source gives them in different places. Square brackets hold non-standard residues; d marks the D form. Ends that are not written are not given here. Peptide text beside a SMILES is read from it. * marks the point of attachment. hSer(lactone) = O=C1OCC[C@@H]1N*; hSer = N[C@@H](CCO)C(=O)O

Broadly, the MIC is the smallest concentration in the dilution series that meets the test's criterion for growth inhibition.

Take ILRWPWWPWRRK-NH2 [11B7CN]: the MIC is 2 µg/mL in test [1] (setting [13]); 16 µg/mL in test [2] (setting [14]); greater than 64 µg/mL in test [3] (setting [15]); greater than 64 µg/mL in [4] (setting [16]); 1 µg/mL in [5] (setting [17]); 4 µg/mL in test [6] (setting [18]). In addition, the MIC in test [7] (setting [19]) was greater than 64 µg/mL; in test [8] (setting [20]), 2 µg/mL; in test [9] (setting [21]) it was 8 µg/mL; in test [10] (setting [22]), 2 µg/mL; in [11] (setting [23]) it was 32 µg/mL; in test [12] (setting [24]), 8 µg/mL.

For the compound `CC[C@H](C)[C@H](N)C(=O)N[C@@H](CC(C)C)C(=O)N[C@@H](CCCNC(=N)N)C(=O)N[C@@H](Cc1c[nH]c2ccccc12)C(=O)N1CCC[C@H]1C(=O)N[C@@H](Cc1c[nH]c2ccccc12)C(=O)N[C@@H](Cc1c[nH]c2ccccc12)C(=O)N1CCC[C@H]1C(=O)N[C@@H](Cc1c[nH]c2ccccc12)C(=O)N[C@@H](CCCNC(=N)N)C(=O)N[C@@H](CCCNC(=N)N)C(=O)N[C@@H](CCCCN)C(=O)N[C@@H](CCO)C(=O)O` [11B7HS] (H-ILRWPWWPWRRK[hSer]-OH; N-terminus assumed), the MIC is 2 µg/mL in test [1] (EFS1); 32 µg/mL in [2] (EFS8); greater than 64 µg/mL in test [3] (ECL7); greater than 64 µg/mL in test [4] (PA4); 1 µg/mL in test [5] (SA93); 2 µg/mL in test [6] (SA14). In addition, the minimum inhibitory concentration (MIC) was greater than 64 µg/mL in test [7] (SMS3); 2 µg/mL in [8]; 32 µg/mL in test [9] (ECO5); 8 µg/mL in test [10] (SE10); 64 µg/mL in test [11] (SMA2); 32 µg/mL in test [12] (KP1).

With `CC[C@H](C)[C@H](N)C(=O)N[C@@H](CC(C)C)C(=O)N[C@@H](CCCNC(=N)N)C(=O)N[C@@H](Cc1c[nH]c2ccccc12)C(=O)N1CCC[C@H]1C(=O)N[C@@H](Cc1c[nH]c2ccccc12)C(=O)N[C@@H](Cc1c[nH]c2ccccc12)C(=O)N1CCC[C@H]1C(=O)N[C@@H](Cc1c[nH]c2ccccc12)C(=O)N[C@@H](CCCNC(=N)N)C(=O)N[C@@H](CCCNC(=N)N)C(=O)N[C@@H](CCCCN)C(=O)N[C@H]1CCOC1=O` [11B7HSL] (H-ILRWPWWPWRRK-{hSer(lactone)}; N-terminus assumed), the MIC in test [1] (setting [13]) is 1 µg/mL; in test [2] (setting [14]), 16 µg/mL; in test [3] (setting [15]), greater than 64 µg/mL; in test [4] (setting [16]), greater than 64 µg/mL; in [5] (setting [17]), 1 µg/mL; in test [6] (setting [18]), 1 µg/mL. Also, the minimal inhibitory concentration (MIC) was greater than 64 µg/mL in [7] (setting [19]); 4 µg/mL in test [8] (setting [20]); 8 µg/mL in test [9] (setting [21]); 4 µg/mL in test [10] (setting [22]); 32 µg/mL in test [11] (setting [23]); 8 µg/mL in test [12] (setting [24]).
